Test results as given in patent US20080161366A1, “AMINOALKYL SUBSTITUTED ARYL SULFAMIDE DERIVATIVES AND METHODS OF THEIR USE” (Wyeth, priority 2006, published 2008).
Counter-ions that a name gives are not always drawn.

Columns and labels:
[1] = Rat liver microsomal stability assay; assay type: in vitro ADME; conditions: pH 7.4; rat liver microsomes, 37° C., NADPH; read-out: RLM stability t1/2
[2] = target: Dopamine Transporter (hDAT) (Homo sapiens, UniProt Q01959); experiment: Dopamine transporter (hDAT) membrane binding assay, [3H]-WIN 35,428
Chain of Dopamine Transporter (hDAT) (Q01959 whole entry): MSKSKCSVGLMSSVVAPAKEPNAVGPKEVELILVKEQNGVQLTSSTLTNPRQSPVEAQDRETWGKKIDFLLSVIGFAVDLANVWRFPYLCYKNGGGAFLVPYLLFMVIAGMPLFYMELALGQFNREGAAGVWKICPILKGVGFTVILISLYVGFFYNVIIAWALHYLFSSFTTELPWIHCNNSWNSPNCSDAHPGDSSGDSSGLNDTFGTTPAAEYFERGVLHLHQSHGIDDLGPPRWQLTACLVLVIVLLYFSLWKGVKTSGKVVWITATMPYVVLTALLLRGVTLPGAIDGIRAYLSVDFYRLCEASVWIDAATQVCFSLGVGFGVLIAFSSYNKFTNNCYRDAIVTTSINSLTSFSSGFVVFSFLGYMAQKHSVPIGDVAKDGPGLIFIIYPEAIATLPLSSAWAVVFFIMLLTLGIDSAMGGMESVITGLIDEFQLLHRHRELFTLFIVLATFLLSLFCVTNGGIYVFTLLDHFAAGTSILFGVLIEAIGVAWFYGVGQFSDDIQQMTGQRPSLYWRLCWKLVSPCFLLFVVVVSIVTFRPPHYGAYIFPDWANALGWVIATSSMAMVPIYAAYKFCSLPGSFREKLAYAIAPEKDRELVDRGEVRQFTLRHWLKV

[3] = target: T1, human norepinephrine transporter (hNET) (Homo sapiens, UniProt P23975); experiment: hNET uptake, Protocol B: cell based norepinephrine reuptake assay using recombinant hNET (MDCK-Net6 cells); conditions: hNET Function IC50 (nM), protocol not stated
T1 sequence (P23975 whole entry): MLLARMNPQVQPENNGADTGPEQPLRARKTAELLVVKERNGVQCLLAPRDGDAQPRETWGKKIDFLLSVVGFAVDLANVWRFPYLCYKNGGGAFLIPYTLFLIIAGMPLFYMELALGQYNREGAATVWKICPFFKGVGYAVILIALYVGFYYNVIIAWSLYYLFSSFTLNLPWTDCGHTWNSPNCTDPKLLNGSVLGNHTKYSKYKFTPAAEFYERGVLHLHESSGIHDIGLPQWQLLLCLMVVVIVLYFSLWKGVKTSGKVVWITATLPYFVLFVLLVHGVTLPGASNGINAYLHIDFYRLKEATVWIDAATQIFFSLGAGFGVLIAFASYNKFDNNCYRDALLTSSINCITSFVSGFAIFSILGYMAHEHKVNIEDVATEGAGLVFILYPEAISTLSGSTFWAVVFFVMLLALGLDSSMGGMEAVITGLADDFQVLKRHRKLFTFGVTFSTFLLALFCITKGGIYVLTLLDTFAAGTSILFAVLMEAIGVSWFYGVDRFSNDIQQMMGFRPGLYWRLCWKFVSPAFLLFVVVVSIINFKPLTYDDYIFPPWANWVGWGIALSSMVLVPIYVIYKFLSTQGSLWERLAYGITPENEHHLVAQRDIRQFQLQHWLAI

[4] = target: T1, human norepinephrine transporter (hNET); experiment: hNET uptake, Protocol A: inhibition of [3H] NE uptake into cloned human NE transporters (MDCK cells); assay type: cell-based; set-up: expressed in transfected cells; host or cells: MDCK-Net6 cells; conditions: for inhibition at 2 µM: MDCK, read-out: NE uptake (Protocol A) % inh. @ 2 uM; for IC50: MDCK cells expressing hNET, [3H] NE 16 nM
Method: hNET Assay Procedure Protocol A: Inhibition of [^3H] NE Uptake into Cloned Human NE Transporters (MDCK Cells) (“hNET uptake”)
[^3H] […] Cells were seeded at 300,000/T75 flask, and split twice weekly.
All uptake experiments were performed in 96-well plates (Falcon Optilux, cat #353947) in a total volume of 250 μl/well. MDCK cells were plated at 50,000 cells/well. […] 25 μl of each test compound was subsequently added to plates in triplicate and incubated at 37° C. for 5 minutes. All test compounds were dissolved in 100% DMSO and diluted in 4% DMSO/H2O, and assayed using a 7-point dose response curve (1 nM-10 μM). Next, 25 μl of [^3H] NE (74.9 Ci/mmol, Perkin Elmer, Boston, Mass.) was added to all wells and incubated at 37° C. for an additional 5 minutes. Non-specific uptake was defined by 20 μM desipramine. The final concentrations of [^3H] NE was 16 nM, respectively. The reaction was terminated by aspiration and washed with ice cold 50 mM Tris (pH 7.4). The plates were left to air dry for roughly 30 min, and MDCK cells were lysed by the addition of 25 μl of 0.25 M NaOH. 100 μl of Microscint-20 were added to each well (Packard, Perkin Elmer, Boston, Mass.), and the plates were counted using a TopCount (Perkin Elmer, Downer's Grove, Ill.) liquid scintillation counter.
% Inhibition of uptake=((mean cpm control wells−each cpm drug well)/(mean cpm control wells−non-specific wells)×100.
IC50 values were calculated using a Prism® nonlinear regression program where % inhibition is plotted versus concentration of inhibitor.

[5] = target: hNET (Homo sapiens, UniProt P23975); experiment: hNET binding according to Mahaney et al.; conditions: printed in the Protocol B column with footnote
Chain of hNET (P23975 whole entry): as above

CNCCCCN1c2ccccc2N(c2ccc(F)cc2)S1(=O)=O [drawing 167]
half-life at 1 µM [1]: 19 min | IC50 [2]: 0.0528 µM | IC50 [3]: 46.1 nM

CNCCCN1c2ccccc2N(c2ccccc2C)S1(=O)=O [drawing 168]
half-life at 1 µM [1]: < 1 min | IC50 [2]: 0.276 µM | IC50 [3]: 7.06 nM

CCN(C)CCCCN1c2ccccc2N(c2ccc(Cl)cc2)S1(=O)=O [Example 23, 4-[3-(4-chlorophenyl)-2,2-dioxido-2,1,3-benzothiadiazol-1(3H)-yl]-ethyl-N-methylbutan-1-amine]
inhibition at 2 µM [4]: 28%

CCNCCCN1c2ccccc2N(c2ccccc2F)S1(=O)=O [drawing 170]
half-life at 1 µM [1]: 1 min | IC50 [2]: 0.665 µM | IC50 [3]: 2.56 nM

NCCCCN1c2ccccc2N(c2ccc(Cl)cc2)S1(=O)=O [Example 19, 4-[3-(4-chlorophenyl)-2,2-dioxido-2,1,3-benzothiadiazol-1(3H)-yl]butan-1-amine]
IC50 [4]: 1.13 µM

CNCCCN1c2ccccc2N(c2cccc(OC)c2)S1(=O)=O [drawing 169]
half-life at 1 µM [1]: 2 min | IC50 [2]: 0.178 µM | IC50 [3]: 10.8 nM

NCCCN1c2ccccc2N(c2ccc(Cl)cc2)S1(=O)=O [Example 2, 3-[3-(4-chlorophenyl)-2,2-dioxido-2,1,3-benzothiadiazol-1(3H)-yl]propan-1-amine]
IC50 [4]: 2.53 µM

NCCN1c2ccccc2N(c2ccc(Cl)cc2)S1(=O)=O [Example 54, 2-[3-(4-chlorophenyl)-2,2-dioxido-2,1,3-benzothiadiazol-1(3H)-yl]ethanamine]
inhibition at 2 µM [4]: 3%

CNCCCN1c2ccccc2N(c2ccc(F)cc2F)S1(=O)=O [drawing 165]
half-life at 1 µM [1]: 10 min | IC50 [2]: 0.366 µM | IC50 [3]: 11.3 nM

CNCCN1c2ccccc2N(c2ccc(Cl)cc2)S1(=O)=O [Example 55, 2-[3-(4-chlorophenyl)-2,2-dioxido-2,1,3-benzothiadiazol-1(3H)-yl]-N-methylethanamine]
inhibition at 2 µM [4]: 15%

CNCCCCN1c2ccccc2N(c2ccc(F)cc2F)S1(=O)=O
half-life at 1 µM [1]: 11 min | IC50 [2]: 0.449 µM | IC50 [3]: 8.4 nM

CNCCCCN1c2ccccc2N(c2ccc(Cl)cc2)S1(=O)=O [Example 20, 4-[3-(4-chlorophenyl)-2,2-dioxido-2,1,3-benzothiadiazol-1(3H)-yl]-N-methylbutan-1-amine]
IC50 [4]: 0.478 µM

CCCCNCCCCN1c2ccccc2N(c2ccc(Cl)cc2)S1(=O)=O [Example 22, n-butyl-4-[3-(4-chlorophenyl)-2,2-dioxido-2,1,3-benzothiadiazol-1(3H)-yl]butan-1-amine]
inhibition at 2 µM [4]: 27%

CNCCCN1c2ccccc2N(c2cccc(F)c2C)S1(=O)=O [Example 10, 3-[3-(3-fluoro-2-methylphenyl)-2,2-dioxido-2,1,3-benzothiadiazol-1(3H)-yl]-N-methylpropan-1-amine]
IC50 [4]: 0.0402 µM

CNCCCN1c2ccccc2N(c2cc(F)ccc2F)S1(=O)=O [drawing 164]
half-life at 1 µM [1]: 2 min | IC50 [2]: 0.479 µM | IC50 [3]: 2.7 nM

CNCCCCN1c2ccccc2N(c2c(F)cccc2F)S1(=O)=O [drawing 162]
half-life at 1 µM [1]: 1 min | IC50 [2]: 9.33 µM | IC50 [3]: 2.3 nM

CNCCCN1c2ccccc2N(c2ccccc2)S1(=O)=O [drawing 157]
half-life at 1 µM [1]: 2 min | IC50 [2]: 0.598 µM | IC50 [3]: 2.6 nM

CNCCCN1c2ccccc2N(c2ccc(F)c(F)c2)S1(=O)=O [drawing 163]
half-life at 1 µM [1]: 18 min | IC50 [2]: 0.122 µM | IC50 [3]: 19.8 nM

CCNCCCN1c2ccccc2N(c2ccc(Cl)cc2)S1(=O)=O [Example 4, 3-[3-(4-chlorophenyl)-2,2-dioxido-2,1,3-benzothiadiazol-1(3H)-yl]-N-ethylpropan-1-amine]
inhibition at 2 µM [4]: 37%

CN(C)CCCCN1c2ccccc2N(c2ccc(Cl)cc2)S1(=O)=O [Example 21, 4-[3-(4-chlorophenyl)-2,2-dioxido-2,1,3-benzothiadiazol-1(3H)-yl]-N,N-dimethylbutan-1-amine]
IC50 [4]: 5.89 µM

NCCCCCN1c2ccccc2N(c2ccc(F)cc2F)S1(=O)=O [Example 116, 5-[3-(2,4-difluorophenyl)-2,2-dioxido-2,1,3-benzothiadiazol-1(3H)-yl]pentan-1-amine hydrochloride]
IC50 [5]: 0.679 µM

CNCCCCN1c2ccccc2N(c2ccccc2)S1(=O)=O [drawing 158]
half-life at 1 µM [1]: 2 min | IC50 [2]: 0.211 µM | IC50 [3]: 0.3 nM

O=S1(=O)N(CCCNC2CC2)c2ccccc2N1c1ccc(Cl)cc1 [Example 3, N-{3-[3-(4-chlorophenyl)-2,2-dioxido-2,1,3-benzothiadiazol-1(3H)-yl]propyl}cyclopropanamine]
IC50 [4]: 4.22 µM
